From ChEMBL document CHEMBL5291721, “A preclinical secondary pharmacology resource illuminates target-adverse drug reaction associations of marketed drugs” (Nat Commun, 2023)

Legend:
[1] = target: Beta-1 adrenergic receptor (Homo sapiens, UniProt P08588); assay type: functional, cell-based
[2] = target: Sodium channel protein type 5 subunit alpha (Homo sapiens, UniProt Q14524); assay type: functional, cell-based
B1 bradykinin receptor = target: T1, B1 bradykinin receptor (Homo sapiens, UniProt P46663)
T1 sequence (P46663 whole entry): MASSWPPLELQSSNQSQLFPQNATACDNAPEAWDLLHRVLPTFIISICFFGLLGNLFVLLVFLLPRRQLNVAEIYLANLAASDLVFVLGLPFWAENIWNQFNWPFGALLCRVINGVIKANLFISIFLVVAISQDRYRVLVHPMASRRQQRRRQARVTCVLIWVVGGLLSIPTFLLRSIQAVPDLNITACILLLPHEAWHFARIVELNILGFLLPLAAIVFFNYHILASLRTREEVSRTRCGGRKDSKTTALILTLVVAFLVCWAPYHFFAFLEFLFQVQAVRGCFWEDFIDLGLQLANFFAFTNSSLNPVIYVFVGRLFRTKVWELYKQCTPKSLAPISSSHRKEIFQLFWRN

Cannabinoid receptor 1 = Cannabinoid receptor 1 (Homo sapiens, UniProt P21554); assay type: functional
Sequence of Cannabinoid receptor 1 (P21554 whole entry): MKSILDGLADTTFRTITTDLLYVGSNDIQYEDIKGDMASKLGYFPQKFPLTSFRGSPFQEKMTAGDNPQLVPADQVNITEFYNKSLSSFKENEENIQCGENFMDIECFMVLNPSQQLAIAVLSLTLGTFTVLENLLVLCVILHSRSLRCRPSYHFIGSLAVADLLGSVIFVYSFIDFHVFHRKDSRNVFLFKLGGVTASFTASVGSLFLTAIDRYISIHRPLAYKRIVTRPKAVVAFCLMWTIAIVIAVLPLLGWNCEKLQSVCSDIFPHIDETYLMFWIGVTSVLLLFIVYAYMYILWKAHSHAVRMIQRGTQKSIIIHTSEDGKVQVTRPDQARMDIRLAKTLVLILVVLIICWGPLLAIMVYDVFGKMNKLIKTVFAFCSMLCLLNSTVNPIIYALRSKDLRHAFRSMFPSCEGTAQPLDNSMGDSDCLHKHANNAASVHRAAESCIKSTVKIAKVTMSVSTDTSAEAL

[3] = target: T2, Corticotropin-releasing factor receptor 1 (Homo sapiens, UniProt P34998)
T2 sequence (P34998 whole entry): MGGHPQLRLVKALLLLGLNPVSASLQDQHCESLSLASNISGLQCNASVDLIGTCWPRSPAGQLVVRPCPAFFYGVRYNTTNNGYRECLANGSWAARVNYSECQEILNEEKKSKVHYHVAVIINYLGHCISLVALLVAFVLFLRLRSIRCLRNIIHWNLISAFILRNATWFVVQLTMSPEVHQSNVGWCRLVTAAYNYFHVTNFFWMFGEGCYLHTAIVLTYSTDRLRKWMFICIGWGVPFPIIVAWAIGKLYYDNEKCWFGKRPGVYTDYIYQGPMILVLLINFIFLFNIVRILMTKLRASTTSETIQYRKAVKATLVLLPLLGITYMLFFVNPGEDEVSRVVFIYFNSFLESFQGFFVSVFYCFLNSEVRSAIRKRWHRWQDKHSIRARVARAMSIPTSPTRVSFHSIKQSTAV

[4] = target: T3, Corticotropin-releasing factor receptor 2 (Homo sapiens, UniProt Q13324)
T3 sequence (Q13324 whole entry): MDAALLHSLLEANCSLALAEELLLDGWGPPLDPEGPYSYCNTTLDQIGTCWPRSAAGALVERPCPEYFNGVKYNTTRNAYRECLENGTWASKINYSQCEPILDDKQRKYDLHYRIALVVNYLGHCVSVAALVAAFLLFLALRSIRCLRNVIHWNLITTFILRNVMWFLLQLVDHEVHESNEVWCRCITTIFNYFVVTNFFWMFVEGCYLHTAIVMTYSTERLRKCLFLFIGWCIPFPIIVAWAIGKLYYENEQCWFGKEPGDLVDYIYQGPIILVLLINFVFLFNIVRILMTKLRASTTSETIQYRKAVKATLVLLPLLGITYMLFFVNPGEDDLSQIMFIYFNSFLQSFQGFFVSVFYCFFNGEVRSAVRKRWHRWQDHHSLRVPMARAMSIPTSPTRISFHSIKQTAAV

[5] = target: Gamma-aminobutyric acid type B receptor subunit 1 (Homo sapiens, UniProt Q9UBS5)
Sequence of Gamma-aminobutyric acid type B receptor subunit 1 (Q9UBS5 whole entry): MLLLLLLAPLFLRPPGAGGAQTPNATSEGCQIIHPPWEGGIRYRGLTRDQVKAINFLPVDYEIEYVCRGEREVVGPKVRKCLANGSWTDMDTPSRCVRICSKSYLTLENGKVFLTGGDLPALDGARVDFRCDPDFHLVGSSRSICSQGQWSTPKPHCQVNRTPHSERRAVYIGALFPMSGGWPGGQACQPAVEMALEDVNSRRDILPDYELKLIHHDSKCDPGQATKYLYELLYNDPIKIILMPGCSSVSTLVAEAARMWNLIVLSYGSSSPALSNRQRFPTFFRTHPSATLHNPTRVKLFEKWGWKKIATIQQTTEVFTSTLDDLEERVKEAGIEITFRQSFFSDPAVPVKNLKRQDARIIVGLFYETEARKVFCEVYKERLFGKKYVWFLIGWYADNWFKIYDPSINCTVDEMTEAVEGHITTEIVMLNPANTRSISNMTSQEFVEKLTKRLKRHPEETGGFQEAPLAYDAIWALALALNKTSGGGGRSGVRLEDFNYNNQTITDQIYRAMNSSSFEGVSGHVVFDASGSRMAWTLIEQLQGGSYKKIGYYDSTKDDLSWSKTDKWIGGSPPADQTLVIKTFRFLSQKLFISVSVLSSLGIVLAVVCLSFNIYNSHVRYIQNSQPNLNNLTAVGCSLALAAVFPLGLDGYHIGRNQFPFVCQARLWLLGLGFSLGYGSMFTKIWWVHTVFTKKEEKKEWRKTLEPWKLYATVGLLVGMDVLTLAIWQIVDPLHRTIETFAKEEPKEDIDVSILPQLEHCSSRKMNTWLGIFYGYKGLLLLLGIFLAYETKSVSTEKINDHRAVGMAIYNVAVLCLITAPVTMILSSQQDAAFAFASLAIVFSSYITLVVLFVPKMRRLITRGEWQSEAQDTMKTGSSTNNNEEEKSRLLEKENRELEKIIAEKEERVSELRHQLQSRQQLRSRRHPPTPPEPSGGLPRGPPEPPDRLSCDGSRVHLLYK

Glucagon receptor = Glucagon receptor (Homo sapiens, UniProt P47871)
Sequence of Glucagon receptor (P47871 whole entry): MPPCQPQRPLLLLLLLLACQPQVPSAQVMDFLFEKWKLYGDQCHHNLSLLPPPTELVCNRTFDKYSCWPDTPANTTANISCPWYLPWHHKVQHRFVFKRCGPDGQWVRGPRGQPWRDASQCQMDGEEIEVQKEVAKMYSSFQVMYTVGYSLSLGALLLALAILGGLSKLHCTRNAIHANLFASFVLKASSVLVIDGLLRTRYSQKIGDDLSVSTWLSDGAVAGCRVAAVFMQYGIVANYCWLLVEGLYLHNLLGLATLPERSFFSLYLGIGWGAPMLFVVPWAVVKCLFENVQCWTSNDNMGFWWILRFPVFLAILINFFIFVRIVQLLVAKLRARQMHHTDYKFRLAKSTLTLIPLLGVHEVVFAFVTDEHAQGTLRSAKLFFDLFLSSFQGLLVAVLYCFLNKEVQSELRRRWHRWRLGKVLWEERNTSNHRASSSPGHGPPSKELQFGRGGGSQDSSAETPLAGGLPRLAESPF

[6] = target: T4, Gastric inhibitory polypeptide receptor (Homo sapiens, UniProt P48546)
T4 sequence (P48546 whole entry): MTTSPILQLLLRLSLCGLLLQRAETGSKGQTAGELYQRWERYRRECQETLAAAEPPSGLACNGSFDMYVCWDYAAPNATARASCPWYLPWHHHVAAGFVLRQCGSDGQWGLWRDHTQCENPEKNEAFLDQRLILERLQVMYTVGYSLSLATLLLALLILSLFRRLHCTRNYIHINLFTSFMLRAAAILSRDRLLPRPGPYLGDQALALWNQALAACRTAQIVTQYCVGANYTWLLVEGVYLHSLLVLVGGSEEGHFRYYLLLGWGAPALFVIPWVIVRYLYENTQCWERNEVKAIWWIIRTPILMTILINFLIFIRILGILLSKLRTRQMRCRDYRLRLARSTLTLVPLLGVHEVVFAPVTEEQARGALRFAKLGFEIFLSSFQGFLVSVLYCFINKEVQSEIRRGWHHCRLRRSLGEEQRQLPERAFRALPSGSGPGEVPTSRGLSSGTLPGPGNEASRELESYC

[7] = target: 5-hydroxytryptamine receptor 6 (Homo sapiens, UniProt P50406)
[8] = target: 5-hydroxytryptamine receptor 7 (Homo sapiens, UniProt P34969)
[9] = target: T5, Neuropeptide Y receptor type 2 (Homo sapiens, UniProt P49146)
T5 sequence (P49146 whole entry): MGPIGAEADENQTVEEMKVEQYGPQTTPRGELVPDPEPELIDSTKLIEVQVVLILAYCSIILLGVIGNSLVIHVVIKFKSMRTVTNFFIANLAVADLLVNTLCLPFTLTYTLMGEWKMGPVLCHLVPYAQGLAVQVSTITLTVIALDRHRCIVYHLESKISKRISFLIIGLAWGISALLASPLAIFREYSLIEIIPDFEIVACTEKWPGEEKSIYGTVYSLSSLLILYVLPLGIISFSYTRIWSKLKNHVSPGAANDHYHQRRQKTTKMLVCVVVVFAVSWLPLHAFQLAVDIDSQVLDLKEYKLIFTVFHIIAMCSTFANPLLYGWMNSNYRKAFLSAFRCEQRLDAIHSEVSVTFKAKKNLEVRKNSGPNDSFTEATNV

Substance-P receptor = Substance-P receptor (Homo sapiens, UniProt P25103)
Sequence of Substance-P receptor (P25103 whole entry): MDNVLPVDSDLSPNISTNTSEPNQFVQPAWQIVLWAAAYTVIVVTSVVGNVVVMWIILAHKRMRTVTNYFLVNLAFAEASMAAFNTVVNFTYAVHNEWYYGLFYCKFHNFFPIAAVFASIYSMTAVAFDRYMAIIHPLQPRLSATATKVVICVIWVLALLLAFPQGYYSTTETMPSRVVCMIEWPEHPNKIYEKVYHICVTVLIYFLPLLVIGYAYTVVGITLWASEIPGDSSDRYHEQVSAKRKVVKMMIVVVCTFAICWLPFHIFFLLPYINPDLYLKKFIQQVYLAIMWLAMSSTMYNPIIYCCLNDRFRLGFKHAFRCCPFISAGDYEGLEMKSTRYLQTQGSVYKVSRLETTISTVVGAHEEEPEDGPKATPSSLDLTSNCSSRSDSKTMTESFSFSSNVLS
Note: assay procedure not described here.

Sequence of Beta-1 adrenergic receptor (P08588 whole entry): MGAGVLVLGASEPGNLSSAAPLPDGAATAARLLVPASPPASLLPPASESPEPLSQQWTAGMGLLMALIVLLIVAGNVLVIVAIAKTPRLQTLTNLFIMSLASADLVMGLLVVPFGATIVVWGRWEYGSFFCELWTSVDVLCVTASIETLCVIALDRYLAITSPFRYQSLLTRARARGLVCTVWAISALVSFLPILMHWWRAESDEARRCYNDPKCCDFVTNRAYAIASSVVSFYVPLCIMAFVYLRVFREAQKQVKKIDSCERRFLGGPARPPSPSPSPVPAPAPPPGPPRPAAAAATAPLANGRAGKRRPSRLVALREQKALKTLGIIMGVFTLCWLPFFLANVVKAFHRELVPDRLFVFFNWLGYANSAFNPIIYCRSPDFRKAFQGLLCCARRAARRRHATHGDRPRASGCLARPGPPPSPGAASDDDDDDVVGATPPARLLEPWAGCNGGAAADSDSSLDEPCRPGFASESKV
Sequence of Sodium channel protein type 5 subunit alpha (Q14524 whole entry): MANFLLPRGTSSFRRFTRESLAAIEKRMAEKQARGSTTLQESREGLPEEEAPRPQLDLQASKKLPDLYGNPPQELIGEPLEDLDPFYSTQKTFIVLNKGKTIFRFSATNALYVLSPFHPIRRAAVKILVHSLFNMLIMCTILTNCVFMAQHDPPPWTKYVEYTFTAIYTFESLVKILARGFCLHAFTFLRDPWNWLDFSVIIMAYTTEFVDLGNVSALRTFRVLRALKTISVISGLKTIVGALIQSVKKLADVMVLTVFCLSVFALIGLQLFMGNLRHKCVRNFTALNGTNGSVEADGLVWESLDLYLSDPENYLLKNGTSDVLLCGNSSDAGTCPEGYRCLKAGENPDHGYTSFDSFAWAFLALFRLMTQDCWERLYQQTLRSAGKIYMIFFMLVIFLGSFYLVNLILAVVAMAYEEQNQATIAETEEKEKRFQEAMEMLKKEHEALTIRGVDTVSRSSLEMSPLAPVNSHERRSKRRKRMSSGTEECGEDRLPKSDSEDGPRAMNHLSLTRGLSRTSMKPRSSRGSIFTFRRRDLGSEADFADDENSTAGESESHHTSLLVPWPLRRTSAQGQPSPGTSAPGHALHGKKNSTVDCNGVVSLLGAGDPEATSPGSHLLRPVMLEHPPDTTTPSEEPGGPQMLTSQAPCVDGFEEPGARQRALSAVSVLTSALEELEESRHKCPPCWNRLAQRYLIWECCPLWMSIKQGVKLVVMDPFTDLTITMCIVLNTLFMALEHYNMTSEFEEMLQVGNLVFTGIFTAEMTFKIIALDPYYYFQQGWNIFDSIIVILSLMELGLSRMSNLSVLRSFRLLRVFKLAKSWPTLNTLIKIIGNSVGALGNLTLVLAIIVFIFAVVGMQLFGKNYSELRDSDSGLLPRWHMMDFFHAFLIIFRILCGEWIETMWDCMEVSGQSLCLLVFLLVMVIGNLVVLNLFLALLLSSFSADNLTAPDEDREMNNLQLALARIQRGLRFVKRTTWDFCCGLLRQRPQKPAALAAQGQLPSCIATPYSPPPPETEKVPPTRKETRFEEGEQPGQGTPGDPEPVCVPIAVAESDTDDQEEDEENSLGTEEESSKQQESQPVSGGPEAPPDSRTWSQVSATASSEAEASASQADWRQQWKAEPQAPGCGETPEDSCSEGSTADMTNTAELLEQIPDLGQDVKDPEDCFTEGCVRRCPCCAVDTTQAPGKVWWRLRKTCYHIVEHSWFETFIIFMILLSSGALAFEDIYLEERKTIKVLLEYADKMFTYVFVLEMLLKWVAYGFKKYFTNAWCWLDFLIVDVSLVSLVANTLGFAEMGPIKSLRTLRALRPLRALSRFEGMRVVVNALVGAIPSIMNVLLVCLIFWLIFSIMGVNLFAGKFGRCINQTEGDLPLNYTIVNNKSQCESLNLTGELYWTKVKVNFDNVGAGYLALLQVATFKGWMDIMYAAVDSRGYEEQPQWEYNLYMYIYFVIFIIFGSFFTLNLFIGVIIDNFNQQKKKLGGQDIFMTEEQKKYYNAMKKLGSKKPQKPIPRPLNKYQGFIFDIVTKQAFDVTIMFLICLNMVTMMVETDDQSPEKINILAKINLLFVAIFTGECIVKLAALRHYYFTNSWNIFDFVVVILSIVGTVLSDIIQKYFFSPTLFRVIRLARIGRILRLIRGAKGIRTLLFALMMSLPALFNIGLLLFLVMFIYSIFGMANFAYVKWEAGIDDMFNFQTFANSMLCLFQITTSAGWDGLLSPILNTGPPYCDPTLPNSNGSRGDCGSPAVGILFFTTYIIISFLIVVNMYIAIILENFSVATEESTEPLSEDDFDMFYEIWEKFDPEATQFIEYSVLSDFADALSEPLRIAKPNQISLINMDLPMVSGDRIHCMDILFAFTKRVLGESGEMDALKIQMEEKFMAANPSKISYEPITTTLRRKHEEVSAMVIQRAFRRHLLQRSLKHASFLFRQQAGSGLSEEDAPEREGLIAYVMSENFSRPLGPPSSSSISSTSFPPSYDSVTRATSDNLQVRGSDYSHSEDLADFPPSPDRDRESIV

Row | Structure (SMILES) | AC50 [1] [µM] | AC50 [2] [µM] | AC50 (B1 bradykinin receptor) [µM] | AC50 (Cannabinoid receptor 1) [µM] | AC50 [3] [µM] | AC50 [4] [µM] | AC50 [5] [µM] | AC50 (Glucagon receptor) [µM] | AC50 [6] [µM] | AC50 [7] [µM] | AC50 [8] [µM] | AC50 [9] [µM] | AC50 (Substance-P receptor) [µM]
1 | N#Cc1ccccc1-c1cc(-c2ccccn2)cn(-c2ccccc2)c1=O | > 30 | > 30 | – | – | – | – | – | – | – | – | – | – | –
2 | N=C(N)NCCCCCCC(=O)NC(O)C(=O)NCCCCNCCCN (stereo not drawn) | > 30 | – | – | – | – | – | – | – | – | – | – | – | –
3 | NCCCC(O)(P(=O)(O)O)P(=O)(O)O [ALENDRONIC ACID] | – | > 30 | > 30 | > 10 | > 30 | > 30 | > 10 | > 30 | > 30 | > 10 | > 10 | > 30 | > 10
4 | O=C(CCCN1CCC(n2c(O)nc3ccccc32)CC1)c1ccc(F)cc1 [BENPERIDOL] | > 30 | – | – | – | – | – | – | – | – | – | – | – | –
5 | CCCC(C)(COC(N)=O)COC(=O)NC(C)C (stereo not drawn) [CARISOPRODOL] | – | – | > 30 | – | > 30 | > 30 | – | > 30 | > 30 | – | – | > 30 | > 10
6 | COCCOC(=O)C1=C(C)NC(C)=C(C(=O)OC/C=C/c2ccccc2)C1c1cccc([N+](=O)[O-])c1 (stereo not drawn) [CILNIDIPINE] | – | > 50 | – | – | – | – | – | – | – | – | – | – | –
7 | N[C@H](Cc1cc(I)c(Oc2cc(I)c(O)c(I)c2)c(I)c1)C(=O)O [DEXTROTHYROXINE] | – | – | > 30 | – | > 30 | > 30 | – | > 30 | > 30 | – | – | > 30 | –
8 | COC(=O)N[C@@H](C)CNc1nccc(-c2cn(C(C)C)nc2-c2cc(Cl)cc(NS(C)(=O)=O)c2F)n1 [ENCORAFENIB] | – | > 30 | – | – | – | – | – | – | – | – | – | – | –
9 | CCCN(CC)C(CC)C(=O)Nc1c(C)cccc1C (stereo not drawn) [ETIDOCAINE] | – | 28 | – | – | – | – | – | – | – | – | – | – | –
10 | CC(=O)OCC(CCn1cnc2cnc(N)nc21)COC(C)=O [FAMCICLOVIR] | – | – | > 30 | – | > 30 | > 30 | – | > 30 | > 30 | – | – | > 30 | > 10
11 | O=C(O)c1ccccc1Nc1cccc(C(F)(F)F)c1 [FLUFENAMIC ACID] | – | – | > 30 | – | > 30 | > 30 | – | > 30 | > 30 | – | – | > 30 | –
12 | C#C[C@]1(O)CC[C@H]2[C@@H]3CCC4=CC(=O)CCC4=C3C=C[C@@]21CC [GESTRINONE] | > 30 | – | – | – | – | – | – | – | – | – | – | – | –
13 | CCCCCCOC(=O)CCC(=O)CN [HEXAMINOLEVULINATE] | > 30 | – | – | – | – | – | – | – | – | – | – | – | –
14 | COC1=C(OC)C(=O)C(CCCCCCCCCCO)=C(C)C1=O [IDEBENONE] | – | – | > 30 | > 10 | > 30 | > 30 | > 10 | > 30 | > 30 | > 10 | > 10 | > 30 | > 10
15 | CC#CCn1c(N2CCC[C@@H](N)C2)nc2c1c(=O)n(Cc1nc(C)c3ccccc3n1)c(=O)n2C [LINAGLIPTIN] | – | > 150 | – | – | – | – | – | – | – | – | – | – | –
16 | Cc1ccc(NC(=O)C2(c3ccc4c(c3)OC(F)(F)O4)CC2)nc1-c1cccc(C(=O)O)c1 [LUMACAFTOR] | – | > 50 | – | – | – | – | – | – | – | – | – | – | –
17 | O=C1CN=C(c2ccccc2)c2cc(Cl)ccc2N1 [NORDAZEPAM] | – | – | > 30 | 0.0006 | > 30 | > 30 | > 10 | > 30 | > 30 | > 10 | > 10 | > 30 | > 10
18 | CC(CCc1ccccc1)NC(C)C(O)c1ccc(O)cc1 (stereo not drawn) [NYLIDRIN] | – | – | > 30 | > 10 | > 30 | > 30 | > 10 | > 30 | > 30 | > 10 | > 10 | > 30 | > 10
19 | O=C1Nc2ccc(Cl)cc2C(c2ccccc2)=NC1O (stereo not drawn) [OXAZEPAM] | – | – | > 30 | > 10 | > 30 | > 30 | > 10 | > 30 | > 30 | > 10 | > 10 | > 30 | > 10
20 | Cc1ccc(=O)n(-c2ccccc2)c1 [PIRFENIDONE] | – | > 50 | – | – | – | – | – | – | – | – | – | – | –
21 | CC(C)CC(N(C)C)C1(c2ccc(Cl)cc2)CCC1 (stereo not drawn) [SIBUTRAMINE] | – | – | > 30 | – | > 30 | > 30 | > 10 | > 30 | > 30 | – | – | > 30 | > 10
22 | [H]/N=C(/N)N[C@H]1[C@H](O)[C@@H](O)[C@H](O[C@@H]2O[C@@H](C)[C@](O)(C=O)[C@H]2O[C@@H]2O[C@@H](CO)[C@H](O)[C@@H](O)[C@@H]2NC)[C@@H](N/C(N)=N\[H])[C@@H]1O [STREPTOMYCIN] | – | – | > 30 | > 10 | > 30 | > 30 | – | > 30 | > 30 | > 10 | > 10 | > 30 | > 10
23 | COc1c(O[C@@H]2O[C@H](CO)[C@@H](O)[C@H](O)[C@H]2O)cc2c(c1OC)-c1ccc(SC)c(=O)cc1[C@@H](NC(C)=O)CC2 [THIOCOLCHICOSIDE] | > 30 | – | – | – | – | – | – | – | – | – | – | – | –
24 | N#C[C@@H]1CCCN1C(=O)CNC12CC3CC(CC(O)(C3)C1)C2 [VILDAGLIPTIN] | – | – | – | > 10 | – | – | > 10 | – | – | > 10 | > 10 | – | > 10
